Assay results as given in patent publication US6676941B2 (Board of Regents, The University of Texas System, priority 1999, dated 2004).

Experiments:
VEGFR1 (Flt-1/Fc) = assay: Co-precipitation assay, VEGF binding to VEGFR1/Fc in solution; conditions: 40 ng VEGF, 200 ng receptor/Fc; 2C3 F(ab′)2 20 μg, A4.6.1 F(ab′)2 10 and 1 μg
Protocol: (§1) 200 ng of soluble forms of VEGFR1 (Flt-1/Fc) or VEGFR2 (KDR/Fc, R&D Systems, Minneapolis, Minn.) were added for a total volume of 50 μl and incubated for 2 hrs. The receptor/Fc constructs were precipitated using Protein A-sepharose beads and the resulting precipitate was washed 4 times with binding buffer.
(§2) Reducing sample buffer was added to the pellet and supernatant of each reaction and both were analyzed by 12% SDS-PAGE and transferred to PVDF membranes. […] The soluble receptor/Fc constructs were also detected by using peroxidase-conjugated goat anti-human Fc (Kirkegaard & Perry Laboratories, Inc.)
(§3) The receptor/Fc constructs were precipitated by incubation with Protein A sepharose beads. The precipitate was washed and resuspended in reducing sample buffer and separated by 12% SDS-PAGE and transferred to PVDF.

VEGFR2 (KDR/Fc) = assay: Co-precipitation assay, VEGF binding to VEGFR2/Fc in solution; conditions: 40 ng VEGF, 200 ng receptor/Fc; 2C3 F(ab′)2 20 μg, A4.6.1 F(ab′)2 10 and 1 μg
Protocol: as §1, §2, §3

[1] = Blood clearance of radioiodinated 2C3-GUS after intravenous injection; assay type: in vivo; conditions: 125I-labelled, intravenous injection into mice
Text: 2C3-GUS was radioiodinated with ^125I to a specific activity of 5×10^6 cpm/μg.

[2] = Enzymatic activity of the GUS portion of 2C3-GUS; assay type: biochemical
Text: The 6-His GUS was pure based upon SDS-PAGE, where it ran as a single band of 75 kDa band. On gel filtration columns, the 6-His GUS runs as a tetramer of about 300 kDa.
The biological activity of each component of the 2C3-GUS conjugate was confirmed.

HT1080 fibrosarcoma = assay: Treatment of established HT1080 fibrosarcoma xenografts; assay type: in vivo, nu/nu mice; conditions: 100 μg i.p. every other day; tumors 200-250 mm^3 at start
Protocol: (§4) Male nu/nu mice bearing subcutaneous NCI-H358 tumors or HT1080 fibrosarcoma 200-400 mm^3 in size were injected i.p. with test or control antibodies. The NCI-H358 bearing mice were treated with 100 μg of antibodies per injection three times a week during the first week and twice a week during the second and third week. The mice were then switched to 50 μg per injection every five days. The HT1080 bearing mice were treated with 100 μg of the indicated antibody or saline every other day throughout the duration of the study. In both studies, mice were sacrificed when their tumors reached 2500 mm^3 in size or earlier if tumors began to ulcerate.

VEGFR2 = assay: VEGF-induced phosphorylation of VEGFR2 in PAE/KDR cells (immunoprecipitation, western blot); assay type: cell-based; conditions: 15 min stimulation, antibodies at 100 nM (15 μg/ml)
Protocol: PAE/KDR, PAE/FLT, and bEND.3 cells were grown to 80-90% confluency in 100 mm tissue dishes in media containing 5% serun. The cells were then serum starved for 24 hours in media containing 0.1% serum. After pretreatment with […] sodium orthovanadate in PBS for 30 min, the cells were incubated with 5 nM (200 ng/ml) VEGF165, 5 nM (100 ng/ml) bFGF (R&D Systems, Minneapolis, Minn.), or A673 tumor conditioned media in the presence or absence of control or test antibodies for additional 15 min.
The cells were then washed with ice-cold PBS containing 10 mM EDTA, 2 mM sodium fluoride, and 2 mM sodium orthovanadate and lysed in lysis buffer (50 mM Tris, 150 mM NaCl, 1% Nonidet P-40, 0.25% sodium deoxycholate, 0.1% CHAPS, 5 mM EDTA, 1.5 mM MgCl2, 2 mM sodium fluoride, 2 mM sodium orthovanadate, 10% glycerol and protease inhibitors (Complete Protease Inhibitor Cocktail tablets, Boehringer Mannheim)). The lysates were clarified by centrifugation and resulting supernatant used for immunoprecipitation.
The reactions using the chicken anti-FLT-1 antibody were subsequently incubated with a bridging goat anti-chicken antibody (Kirkegaard and Perry Laboratories, Inc.) for 1 h at 4° C. […]

[3] = system: A673 rhabdomyosarcoma and LS174T colon adenocarcinoma tumors; assay: Treatment of mice with established A673 and LS174T tumors; conditions: mouse, in vivo
[4] = biological target: T1, VEGF alone or VEGF associated with sFlk-1 (VEGF:Flk-1) (Homo sapiens, UniProt P15692); assay: Indirect and capture ELISA for reactivity with VEGF alone or VEGF:Flk-1; assay type: binding
T1 sequence (P15692 27-191 isoform P15692-4): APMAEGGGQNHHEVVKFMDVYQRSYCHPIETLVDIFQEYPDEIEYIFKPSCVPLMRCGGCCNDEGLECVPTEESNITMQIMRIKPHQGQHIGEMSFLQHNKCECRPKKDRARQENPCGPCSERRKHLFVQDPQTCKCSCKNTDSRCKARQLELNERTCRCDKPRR
Protocol: The Flk-1/SEAP protein was produced and purified as described by Tessler et al. (1994). Basically, the extracellular domain of Flk-1 (sFlk-1) was produced in Spodoptera frugiperda (Sf9) cells and purified by immunoaffinity techniques utilizing a monoclonal anti-Flk-1 antibody (1A8). sF1k-1 was then biotinylated and bound on avidin-coated plates.
The reactivity was determined as described above for the initial screening.
A capture ELISA was also developed. In the capture ELISA, microtiter plates were coated overnight at 4° C. with 100 ng of the indicated antibody. […] Streptavidin conjugated to peroxidase (Kirkegaard & Perry Laboratories, Inc.), diluted 1:2000, was used as a second layer and developed.

[5] = system: VEGF-mediated growth of ABAE cells; assay: Endothelial cell growth assay (MTS), VEGF-mediated growth of ABAE cells; assay type: cell-based, bovine; conditions: Table 5 summary
Protocol: Adult bovine aortic endothelial (ABAE) cells were plated into 96-well tissue culture plates at 1500 cells/well and grown in the presence of 0.5 nM human VEGF with the addition of the various sample and control antibodies. Control wells received media with or without VEGF.
After 4 days of incubation, the cells were quantified by an MTS (3-(4,5-dimethylthiazol-2-yl)-5-(3-carboxylmethoxyphenyl)-2-(4-sulfophenyl)-2H-tetrazolium, inner salt) conversion assay, where MTS conversion to a formazan is proportional to cell number and can be followed by absorbance at 490 nm (Cell Titer 96 AQueous One Solution Cell Proliferation Assay, Promega, Madison, Wis.). The assay was performed according to the manufacturer's instructions.
Cell growth was estimated by subtracting the MTS conversion in cultures to which VEGF was not added. Results were expressed as a percentage of the MTS conversion in control cultures to which only VEGF was added (Buttke et al., 1993).

NCI-H358 NSCLC tumors = assay: Treatment of established NCI-H358 NSCLC xenografts; assay type: in vivo, nu/nu mice
Protocol: as §4
Doses were 50-100 μg every 3-5 days. […] In addition to measuring mean tumor volume (FIG. 4), photographs of the mice from each treatment group were also taken to show the differences in tumor size and appearance at the end of the study.

[6] = biological target: T2, denatured VEGF121 and VEGF165 (Homo sapiens, UniProt P15692); assay: Western blot of VEGF under reducing and non-reducing conditions; assay type: binding
T2 sequence (P15692 27-191 isoform P15692-4): T1 sequence (P15692 27-191 isoform P15692-4)
Protocol: The nitrocellulose membrane was blocked using Sea-Block PP82-41 (East Coast Biologics, Berwick, Me.), and probed with primary antibodies using a mini-blotter apparatus (Immunetics, Cambridge, Mass.). The membranes were developed after incubation with the appropriate peroxidase-conjugated secondary antibody by ECL enhanced chemiluminescence.
Western blot analyses of anti-VEGF antibodies were conducted by separating VEGF165 in the presence of 5% FCS using SDS-PAGE on a 12% gel and analyzing by a standard western blotting protocol using ECL detection. The primary antibodies were incubated with the nitrocellulose membrane using a multi-lane mini-blotter apparatus.

VEGFR1 (FLT-1) = assay: ELISA: VEGF binding to VEGFR1-coated wells in presence of antibody
Protocol: The extracellular domain of VEGFR1 (Flt-1/Fc, R&D Systems, Minneapolis) or VEGFR2 (sFlk-1-biotin) was coated directly on wells of a microtiter plate or captured by NeutrAvidin (Pierce, Rockford, Ill.) coated wells, respectively. VEGF at a concentration of 1 nM (40 ng/ml) was incubated in the wells in the presence or absence of 100-1000 nM (15 μg-150 μg/ml) of control or test antibodies. The wells were then incubated with 1 μg/ml of rabbit anti-VEGF antibody (A-20, Santa Cruz Biotechnology, Santa Cruz, Calif.).
The reactions were developed by the addition of peroxidase-labeled goat anti-rabbit antibody (Dako, Carpinteria, Calif.) and visualized by addition of 3,3′5,5′-tetramethylbenzidine (TMB) substrate (Kirkegaard and Perry Laboratories, Inc.). Reactions were stopped after 15 min with 1 M H3PO4 and read spectrophotometrically at 450 nM.

KDR = assay: 125I-VEGF binding to KDR expressing endothelial cells (ABAE cells); design: species or system bovine
VEGFR2 (KDR/Flk-1) = assay: ELISA: VEGF binding to VEGFR2-coated wells in presence of antibody; design: species or system mouse
[7] = system: NCI-H358 human NSCLC and HT29 human colonic adenocarcinoma xenografts; assay: In vivo localization in mice bearing human tumor xenografts (immunohistochemistry of tumor and organs)
Protocol: Tumors were grown subcutaneously in immunocompromised mice (NCI-H358 NSCLC in nu/nu mice and HT29 colon adenocarcinoma in SCID mice) until the tumor volume was approximately 1 cm^3. 100 μg of unlabeled antibody for studies using SCID mice, or 100 μg of biotinylated antibody for studies using nude mice, was injected intravenously via a tail vein. Twenty four hours later, the mice were anesthetized, perfused with PBS, and tumor and organs including heart, lungs, liver, kidneys, intestines and spleen were collected and snap frozen in liquid nitrogen.
The tumor and organs from each mouse were sectioned on a cryostat and stained for antibody immunohistochemically as above, with the exception that sections from the nude mice were developed using peroxidase labeled streptavidin-biotin complex (Dako, Carpinteria, Calif.) and the sections from the SCID mice were developed using two peroxidase-conjugated secondary antibodies, a goat anti-mouse IgG+IgM followed by a rabbit anti-goat IgG.
100 μg of GV39M and 3E7 or isotype-matched control IgG were injected into SCID mice bearing HT29 human colonic adenocarcinomas. Twenty-four hours later, the mice were sacrificed, exsanguinated and the tumors and tissues were removed.

[8] = system: cancer patients having progressive disease; conditions: clinical trials; cited from earlier work
[9] = 100 fold molar excess over VEGF

Compound: 2C3 F(ab′)2: F(ab′)2 fragment of 2C3
- Blocking of VEGF binding to VEGFR1/Fc in solution (VEGFR1 (Flt-1/Fc)): not to VEGFR1/Fc
- Blocking of VEGF binding to VEGFR2/Fc in solution (VEGFR2 (KDR/Fc)): blocked the binding of VEGF to VEGFR2/Fc

Compound: 2C3-GUS
- t½ α [1]: about 6 hours
- t½ β [1]: about 25 hours
- Enzymatic activity of GUS portion [2]: retained enzymatic activity

Compound: 2C3: anti-VEGF monoclonal antibody, IgG2a,k, raised to recombinant human VEGF; hybridoma ATCC PTA 1595; blocks VEGF binding to VEGFR2, not VEGFR1
- Effect on growth of HT1080 tumors (HT1080 fibrosarcoma): arrested the growth of the tumors
- Blocking of VEGF-induced phosphorylation of VEGFR2 (VEGFR2): block VEGF-induced phosphorylation of VEGFR2
- Effect on growth of established A673 and LS174T tumors [3]: significantly slowed the growth
- Predominant Reactivity [4]: VEGF
- Blocks VEGF-induced proliferation [5]: Yes
- Mean tumor weight at the end of the study (day 116) (NCI-H358 NSCLC tumors; FIG. 5A, 100 μg i.p., initial treatment 500 μg i.v.): 0.054 g
- Mean tumor volume after approximately 14 wk of treatment (NCI-H358 NSCLC tumors; FIG. 5A, 100 μg i.p., start 480 mm^3 (2C3), 428 mm^3 (3E7)): 84 mm^3
- Decrease in mean tumor volume (NCI-H358 NSCLC tumors; FIG. 5A, after approximately 14 wk): approximately 80%
- Mean tumor volume at the end of the study, % of the initial mean tumor volume (NCI-H358 NSCLC tumors; tumors 300-450 mm^3 at start, 50-100 μg i.p. every 3-5 days, approximately 10 weeks): 30%
- Reactivity with VEGF on western blot [6]: react with denatured VEGF121 and VEGF165
- Amount VEGF that bound to ELISA wells, maintained (VEGFR1 (FLT-1); [9]): about 92%
- Blocks VEGF from binding to VEGFR1 (VEGFR1 (FLT-1); Table 5 summary): No
- Blocking of 125I-VEGF binding to KDR on ABAE cells (KDR): blocks VEGF from binding to KDR in a concentration dependent manner
- Reduction in VEGF binding to VEGFR2 (VEGFR2 (KDR/Flk-1); [9]): about 74%
- Amount VEGF bound to VEGFR2-coated wells, % of amount bound in the absence of antibody (VEGFR2 (KDR/Flk-1); 1000-fold molar excess of antibody over VEGF (1 nM VEGF)): ~19%
- Reduction in VEGF binding to VEGFR2 (VEGFR2 (KDR/Flk-1); 1000 fold molar excess over VEGF): about 81%
- Blocks VEGF from binding to VEGFR2 (VEGFR2 (KDR/Flk-1); Table 5 summary): Yes
- Tumor localization in the HT29 human tumor model ([7]; after i.v. injection): localized strongly to the connective tissue
- Immunohistochemical Reactivity, Tumor ([7]; as E17, 3E7 and GV39M bound tumor vascular endothelium, 2C3 bound tumor stroma): 3+

Compound: NC(=O)c1nnn(Cc2cc(Cl)c(C(=O)c3ccc(Cl)cc3)c(Cl)c2)c1N [CAI, carboxyamidotriazole]
- Disease stabilization, share of cancer patients having progressive disease before treatment [8]: 49%
